Source: patent US6509328B1, “Glutamate receptor antagonists” (Hoffmann-La Roche Inc., priority 1999, dated 2003)

Assays:
[1] = target: T1, rat mGlu2 receptor (Rattus norvegicus, UniProt P31421); assay: [3H]-LY354740 binding on mGlu2 transfected CHO cell membranes
T1 construct: expressed in transfected cells; vector pcDNA I-amp (pcD1mGR2)
Description: [^3H]-LY354740 Binding on mGlu2 Transfected CHO Cell Membranes
Transfection and Cell Culture
cDNA encoding the rat mGlu2 receptor protein in pBluescript II was obtained from Prof. S. Nakanishi (Kyoto, Japan), and subcloned into the eukaryotic expression vector pcDNA I-amp from Invitrogen (N V Leek, The Netherlands). This vector construct (pcD1mGR2) was co-transfected with a psvNeo plasmid encoding the gene for neomycin resistance, into CHO cells by a modified calcium phosphate method described by Chen & Okayama (1988). The cells were maintained in Dulbecco's Modified Eagle medium with reduced L-glutamine (2 mM final concentration) and 10% dialysed foetal calf serum from Gibco BRL (Basel, Switzerland). Selection was made in the presence of […] (1000 ug/ml final). Clones were identified by reverse transcription of 5 μg total RNA, followed by PCR using mGlu2 receptor specific primers 5′-[…]-3′ and 5′-[…]-3′ in 60 mM Tris HCl (pH 10), 15 mM (NH4)2SO4, 2 mM MgCl2, 25 units/ml Taq Polymerase with 30 cycles annealing at 60° C. for 1 min., extension at 72° C. for 30s, and 1 min. 95° C. denaturation.
Cells, cultured as above, were harvested and washed three times with cold PBS and frozen at −80° C. The pellet was resuspended in cold 20 mM HEPES-NaOH buffer containing 10 mM EDTA (pH 7.4), and homogenised with a polytron (Kinematica, AG, Littau, Switzerland) for 10s at 10,000 rpm. After centrifugation for 30 min. at 4° C., the pellet was washed once with the same buffer, and once with cold 20 mM HEPES-NaOH buffer containing 0.1 mM EDTA, (pH 7.4). Protein content was measured using the Pierce method (Socochim, Lausanne, Switzerland) using bovine serum albumin as standard.
After thawing, the membranes were resuspended in cold 50 mM Tris-HCl buffer containing 2 mM MgCl2 and 2 mM CaCl2, (pH 7) (binding buffer). The final concentration of the membranes in the assays was 25 μg protein/ml. Inhibition experiments were performed with membranes incubated with 10 nM [^3H]-LY354740 at room temperature, for 1 hour, in presence of various concentrations of the compound to be tested. Following the incubations, membranes were filtered onto Whatmann GF/C glass fiber filters and washed 5 times with cold binding buffer. Non specific binding was measured in the presence of 10 μM DCG IV (TOCRIS No. 0975). After transfer of the filters into plastic vials containing 10 ml of Ultima-gold scintillation fluid (Packard, Zürich, Switzerland), the radioactivity was measured by liquid scintillation in a Tri-Carb 2500 TR counter (Packard, Zürich, Switzerland).
The inhibition curves were fitted with a four parameter logistic equation giving IC50 values, and Hill coefficients.

T1 sequence (P31421 19-872): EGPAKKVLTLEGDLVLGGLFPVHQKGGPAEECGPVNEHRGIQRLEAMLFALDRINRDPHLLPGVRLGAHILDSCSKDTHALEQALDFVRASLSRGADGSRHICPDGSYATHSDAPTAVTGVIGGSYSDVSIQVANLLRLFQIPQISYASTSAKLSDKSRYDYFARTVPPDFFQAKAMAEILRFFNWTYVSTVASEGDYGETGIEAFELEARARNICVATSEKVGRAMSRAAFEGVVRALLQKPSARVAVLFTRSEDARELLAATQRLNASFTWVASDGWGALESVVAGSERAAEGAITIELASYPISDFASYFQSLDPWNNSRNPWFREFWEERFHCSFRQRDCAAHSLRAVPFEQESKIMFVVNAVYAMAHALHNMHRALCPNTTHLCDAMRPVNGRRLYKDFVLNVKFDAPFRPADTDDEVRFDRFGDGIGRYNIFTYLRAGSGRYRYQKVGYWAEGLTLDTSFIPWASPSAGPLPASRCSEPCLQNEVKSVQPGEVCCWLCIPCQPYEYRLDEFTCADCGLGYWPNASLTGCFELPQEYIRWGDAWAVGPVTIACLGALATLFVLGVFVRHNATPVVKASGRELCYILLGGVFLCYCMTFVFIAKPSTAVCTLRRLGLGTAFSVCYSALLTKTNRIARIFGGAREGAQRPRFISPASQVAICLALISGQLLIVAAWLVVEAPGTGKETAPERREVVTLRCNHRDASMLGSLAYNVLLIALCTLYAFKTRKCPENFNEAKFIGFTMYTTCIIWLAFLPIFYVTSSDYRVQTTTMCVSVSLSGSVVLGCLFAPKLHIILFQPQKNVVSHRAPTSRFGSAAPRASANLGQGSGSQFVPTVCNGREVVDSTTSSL

Compound | Ki [1] [nM] | melting point
Cc1cc(F)ccc1-c1ccc2c(c1)NC(=O)CC(c1cccc(-n3ccnc3)c1)=N2 [Example 79, 8-(4-Fluoro-2-methyl-phenyl)-4-(3-imidazol-1-yl-phenyl)-1,3-dihydro-benzo[b][1,4]diazepin-2-one] | 50 | 170 to 172 °C
O=C1CC(c2cccc(-n3ccnc3)c2)=Nc2ccc(C#Cc3ccccc3)cc2N1 [Example 52] | 6 | 193 to 196 °C
Cc1cc(-c2cccc(C3=Nc4ccc(-c5ccc(F)cc5)cc4NC(=O)C3)c2)on1 [Example 117, 8-(4-Fluoro-phenyl)-4-[3-(3-methyl-isoxazol-5-yl)-phenyl]-1,3-dihydro-benzo[b][1,4]diazepin-2-one] | 289 | > 250 °C
N#Cc1cc(C2=Nc3ccc(-c4ccc(F)cc4F)cc3NC(=O)C2)ccn1 [Example 104, 4-[7-(2,4-Difluoro-phenyl)-4-oxo-4,5-dihydro-3H-benzo [b][1,4]diazepin-2-yl]-pyridine-2-carbonitrile] | 26 | 250 to 253 °C
O=C1CC(c2cccc(-n3cncn3)c2)=Nc2ccc(C#Cc3ccc(F)cc3)cc2N1 [Example 62, 8-(4-Fluoro-phenylethynyl)-4-(3-[1,2,4]triazol-1-yl-phenyl)-1,3-dihydro-benzo[b][1,4]diazepin-2-one] | 49 | 217 to 218 °C
O=C1CC(c2cccc(-n3ccnc3)c2)=Nc2ccc(C#Cc3ccc(F)cc3)cc2N1 [Example 58, 8-(4-Fluoro-phenylethynyl)-4-(3-imidazol-1-yl-phenyl)-1,3-dihydro-benzo [b][1,4]diazepin-2-one] | 4 | 216 to 218 °C
N#Cc1cccc(C2=Nc3ccc(I)cc3NC(=O)C2)c1 [Example 1, 3-(7-Iodo-4-oxo-4,5-dihydro-3H-benzo[b][1,4]diazepin-2-yl)-benzonitrile] | 17 | 198 to 200 °C (dec.)
O=C1CC(c2cccc(-n3ccnc3)c2)=Nc2ccc(-c3ccc(F)cc3O)cc2N1 [Example 80, 8-(4-Fluoro-2-hydroxy-phenyl)-4-(3-imidazol-1-yl-phenyl)-1,3-dihydro-benzo[b][1,4]diazepin-2-one] | 170 | 220 °C
Cc1cn(-c2cccc(C3=Nc4ccc(-c5ccc(F)cc5)cc4NC(=O)C3)c2)cn1 [Example 76, 8-(4-Fluoro-phenyl)-4-[3-(4-methyl-imidazol-1-yl)-phenyl]-1,3-dihydro-benzo [b][1,4]diazepin-2-one] | 16 | 215 °C
